Measured values: US20200062773A1, “4,4a,5,7-TETRAHYDRO-3H-FURO[3,4-b]PYRIDINYL COMPOUNDS” (Janssen Pharmaceutlca NV, priority 2016, published 2020)

What was measured:
BACE1 = biological target: T1, BACE1 (Homo sapiens, UniProt P56817); assay: BACE1 biochemical FRET based assay; conditions: Method 1: recombinant BACE1 1 μg/ml, 120 min at room temperature, pH 5.0; for IC50: read-out: Biochemical FRET based assay pIC50 (converted)
T1 construct: recombinant BACE1 protein in a final concentration of 1 μg/ml
T1 sequence (P56817 46-501): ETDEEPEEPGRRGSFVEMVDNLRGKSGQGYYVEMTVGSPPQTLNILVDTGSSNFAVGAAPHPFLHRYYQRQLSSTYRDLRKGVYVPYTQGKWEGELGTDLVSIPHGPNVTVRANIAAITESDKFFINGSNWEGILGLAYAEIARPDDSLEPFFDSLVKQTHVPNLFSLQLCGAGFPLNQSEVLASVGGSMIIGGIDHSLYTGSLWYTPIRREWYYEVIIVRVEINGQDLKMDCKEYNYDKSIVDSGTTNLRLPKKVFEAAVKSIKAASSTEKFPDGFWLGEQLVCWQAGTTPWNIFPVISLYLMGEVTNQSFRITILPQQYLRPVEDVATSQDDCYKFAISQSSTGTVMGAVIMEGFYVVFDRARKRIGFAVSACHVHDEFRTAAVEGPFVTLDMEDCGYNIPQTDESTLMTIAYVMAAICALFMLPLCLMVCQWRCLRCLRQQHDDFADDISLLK
Description: BACE1 Biochemical Fret Based Assay
(§1) This assay is a Fluorescence Resonance Energy Transfer Assay (FRET) based assay. The substrate for this assay is an APP derived 13 amino acids peptide that contains the ‘Swedish’ Lys-Met/Asn-Leu mutation of the amyloid precursor protein (APP) beta-site APP-cleaving enzyme cleavage site. This substrate also contains two fluorophores: (7-methoxycoumarin-4-yl) acetic acid (Mca) is a fluorescent donor with excitation wavelength at 320 nm and emission at 405 nm and 2,4-Dinitrophenyl (Dnp) is a proprietary quencher acceptor. […] Upon cleavage by BACE1, the fluorophore Mca is separated from the quenching group Dnp, restoring the full fluorescence yield of the donor. The increase in fluorescence is linearly related to the rate of proteolysis.
Briefly in a 384-well format recombinant BACE1 protein in a final concentration of 1 μg/ml is incubated for 120 minutes at room temperature with 10 μm substrate in incubation buffer (40 mM Citrate buffer pH 5.0, 0.04% PEG, 4% DMSO) in the absence or presence of compound. Next the amount of proteolysis is directly measured by fluorescence measurement at T=0 and T=120 (excitation at 320 nm and emission at 405 nm). Results are expressed in RFU (Relative Fluorescence Units), as difference between T120 and T0.
(§2) A best-fit curve is fitted by a minimum sum of squares method to the plot of % Controlmin versus compound concentration. From this an IC50 value (inhibitory concentration causing 50% inhibition of activity) can be obtained.

[1] = test system: Abeta 1-42 in cerebrospinal fluid (CSF); assay: Pharmacology in the beagle dog: beta-amyloid profile in CSF after a single dose; assay type: in vivo; conditions: for % Mean decrease in Abeta 1-42 at 8 h post dosing compared to own baseline / % Mean decrease in Abeta 1-42 at 25 h post dosing compared to own baseline / % Mean decrease in Abeta 1-42 at 49 h post dosing compared to own baseline: beagle dog CSF; for EC50 Aβ42: beagle dog, CSF Abeta 1-42 after single dose
Protocol: Pharmacology in the Beagle Dog
(§3) Test compounds were tested to evaluate the effect on the beta-amyloid profile in cerebrospinal fluid (CSF) of dogs after a single dose, in combination with pharmacokinetic (PK) follow up and limited safety evaluation. For each of compound 4b, 3c, 7d, or 14, four beagle dogs (2 males, 2 females) were dosed with vehicle (1 ml/kg of an aqueous solution of 20% cyclodextrin) and 12, 8, 4 and 4 beagle dogs (2 males and 2 females per dosage group), were dosed with test compounds as follows:
(§4) CSF was taken in conscious animals directly from the lateral ventricle via a cannula which was screwed in the skull and covered with subcutaneous tissue and skin, before and at 4, 8, 25 and 49 hours after dosing. Eight hours after dosing the animals got access to their regular meal for 30 minutes. Blood was taken for PK follow up (0.5, 1, 2, 4, 8, 25 and 49 hours) and serum samples for biochemistry were taken before and at 8 and 25 h after dosing. The CSF samples were used for measurement of Abeta 1-42.

BACE2 = biological target: T2, BACE2 (Homo sapiens, UniProt Q9Y5Z0); assay: BACE2 biochemical FRET based assay; conditions: recombinant BACE2, 450 minutes at room temperature, pH 5.0; for IC50: read-out: Biochemical FRET based assay pIC50 (converted)
T2 construct: recombinant BACE2 protein in a final concentration of 0.4 μg/ml
T2 sequence (Q9Y5Z0 63-518): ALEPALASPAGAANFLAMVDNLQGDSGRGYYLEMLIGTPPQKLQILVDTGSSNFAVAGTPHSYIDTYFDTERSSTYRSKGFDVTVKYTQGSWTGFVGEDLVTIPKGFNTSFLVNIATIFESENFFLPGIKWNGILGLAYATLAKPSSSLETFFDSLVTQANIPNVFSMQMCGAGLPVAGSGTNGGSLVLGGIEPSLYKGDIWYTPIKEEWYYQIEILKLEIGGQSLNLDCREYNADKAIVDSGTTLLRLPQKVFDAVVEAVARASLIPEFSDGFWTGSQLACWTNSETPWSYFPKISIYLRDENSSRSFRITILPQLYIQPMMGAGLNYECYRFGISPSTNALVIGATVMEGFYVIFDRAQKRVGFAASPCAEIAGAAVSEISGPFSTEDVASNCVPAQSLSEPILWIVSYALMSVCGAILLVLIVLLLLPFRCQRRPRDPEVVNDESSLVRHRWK
Description: BACE2 Biochemical FRET Based Assay
as §1, with “assay” for “assay is an APP derived 13 amino acids peptide that”, “the beta-site APP-cleaving enzyme,” for “BACE1,”
Briefly in a 384-well format recombinant BACE2 protein in a final concentration of 0.4 μg/ml is incubated for 450 minutes at room temperature with 10 μM substrate in incubation buffer (50 mM Citrate buffer pH 5.0, 0.05% PEG, no DMSO) in the absence or presence of compound. Next the amount of proteolysis is directly measured by fluorescence measurement at T=0 and T=450 (excitation at 320 nm and emission at 405 nm). Results are expressed in RFU (Relative Fluorescence Units), as difference between T450 and T0.
as §2

[2] = test system: Abeta 1-42 produced and secreted into the medium of human neuroblastoma SKNBE2 cells; assay: Cellular αLisa assay in SKNBE2 cells; assay type: cell-based; conditions: human neuroblastoma SKNBE2 cells expressing hAPP695, 18 hours incubation; for IC50: Homo sapiens, SKNBE2, 18 h, read-out: Cellular αLisa assay in SKNBE2 cells Abeta 42 pIC50 (converted)
Protocol: Cellular αLisa Assay in SKNBE2 Cells
In two αLisa assays the levels of Abeta 1-42 produced and secreted into the medium of human neuroblastoma SKNBE2 cells are quantified. The assay is based on the human neuroblastoma SKNBE2 expressing the wild type Amyloid Precursor Protein (hAPP695). The compounds are diluted and added to these cells, incubated for 18 hours and then measurements of Abeta 1-42 are taken. Abeta 1-42 are measured by sandwich αLisa. αLisa is a sandwich assay using biotinylated antibody AbN/25 attached to streptavidin coated beads and antibody cAb42/26 conjugated acceptor beads for the detection of Abeta 1-42 respectively. In the presence of Abeta 1-42, the beads come into close proximity. The excitation of the donor beads provokes the release of singlet oxygen molecules that trigger a cascade of energy transfer in the acceptor beads, resulting in light emission. Light emission is measured after 1 hour incubation (excitation at […] and emission at 615 nm).
as §2

[3] = Limited safety evaluation in the beagle dog (observations, serum biochemistry); assay type: in vivo
Protocol: as §3
as §4, with “Blood was taken for PK follow up (0.5, 1, 2, 4, 8, 25 and 49 hours) and serum samples for biochemistry were taken before and at 8 and 25 h after dosing.” left out

SMILES	Biochemical FRET based assay pIC50 (BACE1)	Biochemical FRET based assay pIC50 (BACE2)	Cellular αLisa assay in SKNBE2 cells Abeta 42 pIC50 [2]	IC50 (BACE1) [nM]	IC50 (BACE2) [nM]	IC50 [2] [nM]	other results
C[C@H]1OC[C@]2(c3cc(NC(=O)c4ccc(C#N)cn4)ccc3F)N=C(N)[C@](C)(C#N)C[C@H]12 [4b]	8.73	7.84	8.9	–	–	–	% Mean decrease in Abeta 1-42 at 8 h post dosing compared to own baseline ([1]; single dose 0.16 mg/kg): 42%; % Mean decrease in Abeta 1-42 at 25 h post dosing compared to own baseline ([1]; single dose 0.16 mg/kg): 21%; % Mean decrease in Abeta 1-42 at 49 h post dosing compared to own baseline ([1]; single dose 0.16 mg/kg): NR (NR means % decrease < 20); % Mean decrease in Abeta 1-42 at 8 h post dosing compared to own baseline ([1]; single dose 0.31 mg/kg): 54%; % Mean decrease in Abeta 1-42 at 25 h post dosing compared to own baseline ([1]; single dose 0.31 mg/kg): 53%; % Mean decrease in Abeta 1-42 at 49 h post dosing compared to own baseline ([1]; single dose 0.31 mg/kg): NR (NR means % decrease < 20); % Mean decrease in Abeta 1-42 at 8 h post dosing compared to own baseline ([1]; single dose 1.25 mg/kg): 80%; % Mean decrease in Abeta 1-42 at 25 h post dosing compared to own baseline ([1]; single dose 1.25 mg/kg): 71%; % Mean decrease in Abeta 1-42 at 49 h post dosing compared to own baseline ([1]; single dose 1.25 mg/kg): 34%; EC50 Aβ42 [1]: 0.024 µg/mL; Observations ([3]; one female dog dosed at 1.25 mg/kg, single dose, 8 h post dosing): slight diarrhea
CC(F)(F)[C@H]1OC[C@]2(c3cc(NC(=O)c4cnc(OCF)cn4)ccc3F)N=C(N)[C@](C)(C#N)C[C@H]12 [compound 14]	–	–	–	2.24	81.3	6.92	% Mean decrease in Abeta 1-42 at 8 h post dosing compared to own baseline ([1]; single dose 0.63 mg/kg): 32%; % Mean decrease in Abeta 1-42 at 25 h post dosing compared to own baseline ([1]; single dose 0.63 mg/kg): NR (NR means % decrease < 20); % Mean decrease in Abeta 1-42 at 49 h post dosing compared to own baseline ([1]; single dose 0.63 mg/kg): NR (NR means % decrease < 20); Observations ([3]; one dog, 0.63 mg/kg single dose, 2 h post dosing): emesis
C[C@@]1(C#N)C[C@@H]2[C@@H](C(F)(F)F)OC[C@]2(c2cc(NC(=O)c3ccc(C#N)cn3)ccc2F)N=C1N [3c]	9.06	7.97	8.52	–	–	–	% Mean decrease in Abeta 1-42 at 8 h post dosing compared to own baseline ([1]; single dose 0.08 mg/kg): 29%; % Mean decrease in Abeta 1-42 at 25 h post dosing compared to own baseline ([1]; single dose 0.08 mg/kg): 27%; % Mean decrease in Abeta 1-42 at 49 h post dosing compared to own baseline ([1]; single dose 0.08 mg/kg): NR (NR means % decrease < 20); % Mean decrease in Abeta 1-42 at 8 h post dosing compared to own baseline ([1]; single dose 0.31 mg/kg): 64%; % Mean decrease in Abeta 1-42 at 25 h post dosing compared to own baseline ([1]; single dose 0.31 mg/kg): 62%; % Mean decrease in Abeta 1-42 at 49 h post dosing compared to own baseline ([1]; single dose 0.31 mg/kg): 50%; EC50 Aβ42 [1]: 0.019 µg/mL; Observations ([3]; one female dog dosed at 0.08 mg/kg, single dose, 8 h post dosing): moderate diarrhea
CC1(C#N)CC2C(C(F)F)OCC2(c2cc(NC(=O)c3cnc(OCF)cn3)ccc2F)N=C1N (single isomer, unassigned) [25b]	–	–	7.13	52.5	891	–	–
C[C@@]1(C#N)C[C@@H]2[C@@H](C(F)F)OC[C@]2(c2cc(NC(=O)c3cnc(-n4cncn4)cn3)ccc2F)N=C1N [26a]	–	–	–	9.77	105	31.6	–
CC1OCC2(c3cc(NC(=O)c4cnc(OCF)cn4)cc(F)c3F)N=C(N)C(C)(C#N)CC12 (single isomer, unassigned) [31d]	–	–	<5.05	> 10000	> 10000	–	–
COc1cnc(C(=O)Nc2ccc(F)c([C@]34CO[C@H](C)[C@H]3C[C@@](C)(C#N)C(N)=N4)c2)cn1 [1b]	7.89	7.21	8.47	–	–	–	–
N#Cc1ccc(C(=O)Nc2ccc(F)c([C@]34CO[C@H](C(F)(F)F)[C@H]3CCC(N)=N4)c2)nc1 [11a]	8.53	6.88	8.58	–	–	–	–
C[C@@H]1OC[C@@]2(c3cc(NC(=O)c4ccc(F)cn4)ccc3F)N=C(N)[C@@](C)(C#N)C[C@@H]12 (single isomer, unassigned) [10c]	5.01	<5	5.29	–	–	–	–
C[C@@]1(C#N)C[C@@H]2[C@@H](C(F)F)OC[C@]2(c2cc(NC(=O)c3ccc(C#N)cn3)ccc2F)N=C1N [27a]	–	–	–	2.82	36.3	6.31	–
C[C@H]1OC[C@]2(c3cc(NC(=O)c4ccc(C#N)cn4)ccc3F)N=C(N)[C@@](C)(C#N)C[C@H]12 [6b]	7.89	6.68	8.12	–	–	–	–
CC(C)(F)[C@H]1OC[C@]2(c3cc(NC(=O)c4ccc(C#N)cn4)ccc3F)N=C(N)[C@@](C)(C#N)C[C@H]12 [21b]	–	–	–	10.5	708	19.5	–
C[C@@]1(C#N)C[C@@H]2[C@@H](C(F)(F)F)OC[C@]2(c2cc(NC(=O)c3ccc(F)cn3)ccc2F)N=C1N [2c]	8.73	8.3	8.32	–	–	–	–
